Laboratory results from patent publication US7459268B2, “Method for screening agent acting on cell wall” (Daiichi Pharmaceutical Co., Ltd., priority 2001, dated 2008).

Tests used:
AY-14 strain [1] = assay: GFP release by cell wall synthesis inhibitors; format: cell-based, Saccharomyces cerevisiae; settings: each agent alone
Source text: As agents confirmed to have a yeast cell wall synthesis inhibitory action, tunicamycin (TM, Funakoshi, Tokyo), aculeacin A (AC, Wako Pure Chemical Industries, Osaka) and staurosporine (SP, Boehringer Mannheim, Tokyo) were used. The AY-14 strain was used as a microorganism.
Thus, it is evident that inhibitors for the (1,3)-β-glucan synthesis pathway, N-type saccharide chain synthesis pathway, saccharide chain (glucan) synthesis regulatory pathway and the like can also be screened.

[2] = system: AY-12 strain (membrane-type arming yeast); assay: GFP releasing effect of available antifungal agents, membrane-type arming yeast; format: cell-based, S. cerevisiae; settings: RPMIB medium protected for osmotic pressure
Procedure: (§1) The cultured yeast cells in the logarithmic growth phase (AY-2 strain or AY-12 strain) were collected, and various agents were allowed to act on the yeast cells. Fluorescence intensity of the culture supernatant was measured by using Cytofluor 2300 Fluorometer (Millipore, excitation=480 nm, emission=530 nm). The fluorescence intensity under treatment with each of various agents was shown in terms of a difference in fluorescence intensity compared with that of a control in which no agent was added.
(§2) In order to ascertain whether or not the aforementioned method can be utilized for a screening of agents with a targeting site other than Kre6p, the GFP releasing effects in the AY-2 strain (wall-type arming yeast) and the AY-12 strain (membrane-type arming yeast) were compared under actions of available antifungal agents. The AY-2 strain cells and the AY-12 strain cells each cultured in a test tube were suspended with a medium (RPMIB) protected for osmotic pressure, and each of the agents was allowed to act on the cells. After the culture, the fluorescence intensity of the supernatant was measured, and a difference from that of a control with no addition of the agent was calculated.

[3] = system: AY-2 strain (wall-type arming yeast); assay: GFP releasing effect of available antifungal agents, wall-type arming yeast; format: cell-based, S. cerevisiae; settings: RPMIB medium protected for osmotic pressure
Procedure: as §1, §2

AY-14 strain [4] = assay: Molecular weight of released GFP by Western blotting after agent treatment; format: cell-based, Saccharomyces cerevisiae; settings: agent alone
Procedure: Cells at the logarithmic growth phase were collected after inoculation to the liquid medium and culture at 30° C., and suspended in a fresh medium of the same type to prepare a cell suspension for inoculation. The cells were cultured at 30° C. Fluorescence intensity of the culture supernatant was measured (excitation=480 nm, emission=530 nm) by using ARVO sx (Wallac, Tokyo). The GFP releasing effect of the gene-disrupted strains was represented in terms of a difference with that of a non-gene-disrupted strain (AY-10u strain or AY12u strain). After the measurement of fluorescence intensity, the culture supernatants were concentrated by ultrafiltration. The concentrated supernatants were subjected to separation by SDS-PAGE and blotted on a PVDF membrane, and GFP was detected by using commercially available anti-GFP antibodies (rabbit IgG, Santa Cruz Biotechnology) to compare the molecular weights (Western blotting).
As agents confirmed to have a yeast cell wall synthesis inhibitory action, tunicamycin (TM, Funakoshi, Tokyo), aculeacin A (AC, Wako Pure Chemical Industries, Osaka) and staurosporine (SP, Boehringer Mannheim, Tokyo) were used. The AY-14 strain was used as a microorganism. […]

| Compound | release of GFP (AY-14 strain [1]) | GFP releasing effect (fluorescence intensity of culture supernatant, difference from control with no agent) [2] | GFP releasing effect (fluorescence intensity of culture supernatant, difference from control with no agent) [3] | molecular weight of released GFP compared with that in the absence of agent (AY-14 strain [4]) |
| --- | --- | --- | --- | --- |
| Tunicamycin | release of GFP was observed | almost no releasing effect | Marked GFP releasing effect | markedly lowered |
| OC(Cn1cncn1)(Cn1cncn1)c1ccc(F)cc1F [Fluconazole] | – | Slight releasing effect | Slight releasing effect | – |
| CC[C@@H](C(=O)[C@@H](C)[C@@H](O)[C@H](C)[C@@H]1O[C@@H]([C@@H](CC)C(=O)O)CC[C@@H]1C)[C@H]1O[C@]2(C=C[C@@H](O)[C@]3(CC[C@@](C)([C@H]4CC[C@](O)(CC)[C@H](C)O4)O3)O2)[C@H](C)C[C@@H]1C [Salinomycin] | – | Slight releasing effect | Slight releasing effect | – |
| C[C@@H]1[C@H](O)[C@@H](C)/C=C/C=C/C=C/C=C/C=C/C=C/C=C/[C@H](O[C@@H]2O[C@H](C)[C@@H](O)[C@H](N)[C@@H]2O)C[C@@H]2O[C@](O)(C[C@@H](O)C[C@@H](O)[C@H](O)CC[C@@H](O)C[C@@H](O)CC(=O)O[C@H]1C)C[C@H](O)[C@H]2C(=O)O [Amphotericin B] | – | Slight releasing effect | Slight releasing effect | – |
| CN[C@@H]1C[C@H]2O[C@@](C)([C@@H]1OC)n1c3ccccc3c3c4c(c5c6ccccc6n2c5c31)C(=O)NC4 [SP, staurosporine] | release of GFP was observed | – | – | – |
| Aculeacin A | release of GFP was observed | almost no releasing effect | Marked GFP releasing effect | – |
